In PubChem BioAssay (NCI):
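Following 48 hours of exposure in 96-well plates, responses at five concentrations were used to interpolate endpoints linearly. TGI marks complete inhibition of growth.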

Columns and labels:
Assay in all cases: DTP human tumour cell line panel, 48 h
[1] = test system: UACC-257 melanoma
[2] = test system: M19-MEL melanoma
[3] = test system: MCF7 breast
[4] = test system: RXF-631 renal
[5] = test system: SW-620 colon
[6] = test system: EKVX NSCLC
[7] = test system: HT29 colon
[8] = test system: SF-268 CNS
[9] = test system: HS 578T breast
[10] = test system: LXFL 529 NSCLC
[11] = test system: MDA-N
[12] = test system: HOP-62 NSCLC
[13] = test system: M14 melanoma
[14] = test system: U251 CNS
[15] = test system: MOLT-4 leukemia
[16] = test system: SK-MEL-2 melanoma
[17] = test system: MDA-MB-231 breast
[18] = test system: SNB-19 CNS
[19] = test system: A549 NSCLC
[20] = test system: NCI-H226 lung
[21] = test system: SF-539 CNS
[22] = test system: DU-145 prostate
[23] = test system: SF-295 CNS
[24] = test system: T-47D breast
[25] = test system: A498 renal
[26] = test system: HCT-116 colon
[27] = test system: SK-MEL-5 melanoma
[28] = test system: NCI/ADR-RES ovarian
[29] = test system: RXF 393 renal
[30] = test system: HCC-2998 colon
[31] = test system: DLD-1 colon
[32] = test system: OVCAR-5 ovarian
[33] = test system: SNB-78 CNS
[34] = test system: K-562 leukemia
[35] = test system: IGROV1 ovarian
[36] = test system: SN12C renal
[37] = test system: 786-0 renal
[38] = test system: PC-3 prostate
[39] = test system: SK-OV-3 ovarian
[40] = test system: SNB-75 CNS
[41] = test system: UACC-62 melanoma
[42] = test system: UO-31 renal
[43] = test system: NCI-H23 lung
[44] = test system: HOP-92 NSCLC
[45] = test system: OVCAR-8 ovarian
[46] = test system: NCI-H522 lung
[47] = test system: CAKI-1 renal
[48] = test system: COLO 205 colon
[49] = test system: LOX IMVI melanoma
[50] = test system: NCI-H460 lung
[51] = test system: ACHN renal
[52] = test system: CCRF-CEM leukemia
[53] = test system: BT-549 breast
[54] = test system: TK-10 renal
[55] = test system: MDA-MB-435
[56] = test system: XF 498 CNS
[57] = test system: SR leukemia
[58] = test system: HL-60(TB) leukemia
[59] = test system: MALME-3M melanoma
[60] = test system: OVCAR-3 ovarian
[61] = test system: RPMI-8226 leukemia
[62] = test system: DMS 273 small cell lung
[63] = test system: HOP-18 NSCLC
[64] = test system: HCT-15 colon
[65] = test system: KM12 colon
[66] = test system: SK-MEL-28 melanoma
[67] = test system: OVCAR-4 ovarian
[68] = test system: KM20L2 colon

C=C(CN(C)C)C(=O)c1ccc(Oc2ccccc2)cc1
TGI [1]: 17.7 µM
TGI [2]: 14.8 µM
TGI [3]: 15.6 µM
TGI [4]: 35.9 µM
TGI [5]: 9.27 µM
TGI [6]: 44 µM
TGI [7]: 34.3 µM
TGI [8]: 32.5 µM
TGI [9]: 21.7 µM
TGI [10]: 5.04 µM
TGI [11]: 9.38 µM
TGI [12]: 43.7 µM
TGI [13]: 4.02 µM
TGI [14]: 23.7 µM
TGI [15]: 2.05 µM
TGI [16]: 19.6 µM
TGI [17]: 15.5 µM
TGI [18]: 28.8 µM
TGI [19]: 42.6 µM
TGI [20]: 34.3 µM
TGI [21]: 12.2 µM
TGI [22]: 27.6 µM
TGI [23]: 38.3 µM
TGI [24]: 13.7 µM
TGI [25]: 42.1 µM
TGI [26]: 5.32 µM
TGI [27]: 19.8 µM
TGI [28]: > 100 µM
TGI [29]: 7.17 µM
TGI [30]: 32.3 µM
TGI [31]: 6.96 µM
TGI [32]: 18.6 µM
TGI [33]: 41.9 µM
TGI [34]: 12.5 µM
TGI [35]: 30.8 µM
TGI [36]: 16.4 µM
TGI [37]: 4.99 µM
TGI [38]: 11.6 µM
TGI [39]: 47.9 µM
TGI [40]: 35.5 µM
TGI [41]: 13 µM
TGI [42]: 8.72 µM
TGI [43]: 24.9 µM
TGI [44]: > 25.5 µM
TGI [45]: 25.3 µM
TGI [46]: 2.72 µM
TGI [47]: 6.69 µM
TGI [48]: 3.35 µM
TGI [49]: 28.5 µM
TGI [50]: 51.6 µM
TGI [51]: 5.08 µM
TGI [52]: 14.6 µM
TGI [53]: 12.9 µM
TGI [54]: 14.5 µM
TGI [55]: 10.3 µM
TGI [56]: 27.9 µM
TGI [57]: 4.24 µM
TGI [58]: 3.46 µM
TGI [59]: 9.18 µM
TGI [60]: 13.2 µM
TGI [61]: > 21.8 µM
TGI [62]: 46.8 µM
TGI [63]: 13.3 µM
TGI [64]: 11 µM
TGI [65]: 29.8 µM
TGI [66]: 17.4 µM
TGI [67]: 20.9 µM
TGI [68]: 27.5 µM
